This note sets out measurements from patent US9988381B2, “Five-member-heterocycle fused pyridine compounds, method of producing the same, and use thereof” (SHANGHAI INSTITUTE OF MATERIA MEDICA, CHINESE ACADEMY OF …, priority 2013, dated 2018).

SMILES strings stand for the structures. Read-outs that look alike come from different tables or passages of the source.

In assay [1] the target is T1, c-Met kinase domain recombinant protein (Homo sapiens, UniProt P08581).
T1 construct: 50 μL diluted solution of c-Met kinase domain recombinant protein in reaction buffer was added to initiate the reaction
In words: biochemical. The note with it: read-out: Inhibition rate at 10 μM (%). The method, then:
Enzymatic reaction substrate Poly(Glu,Tyr)4:1 was diluted to 20 μg/mL in potassium ion free PBS (10 mM sodium phosphate buffer, 150 mM NaCl, pH7.2-7.4), microplate was coated with this solution at 125 μL per well, and reacted at 37° C. for 12-16 hours. Liquid in wells was discarded. Plate washing: the plate was washed 3 times for 5 minutes each with 200 μL per well of T-PBS (potassium ion free PBS containing 0.1% Tween-20).
Into each well was added 49 μL diluted ATP solution in reaction buffer (50 mM HEPES pH 7.4, 50 mM MgCl2, 0.5 mM MnCl2, 0.2 mM Na3VO4, 1 mM DTT), and 1 μL per well of compound to be tested was added, then 50 μL diluted solution of c-Met kinase domain recombinant protein in reaction buffer was added to initiate the reaction, each test was setup with two wells of ATP free control. Reaction was performed in a 37° C. shaker (100 rpm) for 1 hour. Liquid in the wells was discarded, and the plate was washed three times with T-PBS.
Antibody PY99 was added at 100 μL per well (the antibody was 1:500 diluted in T-PBS containing 5 mg/mL BSA), incubated in a 37° C. shaker for 0.5 hour. Liquid in the wells was discarded, and the plate was washed three times with T-PBS.
Goat anti mouse secondary antibody labeled with horseradish peroxidase was added at 100 μL per well (the antibody was 1:2000 diluted in T-PBS containing 5 mg/mL BSA), incubated in a 37° C. shaker for 0.5 hour. Liquid in the wells was discarded, and the plate was washed three times with T-PBS.
Reaction was terminated by adding 50 μL per well of 2M H2SO4, the plate was read at 490 nm using a VERSAmax microplate reader with tunable wavelength.
(§1) Inhibition rate of the sample was calculated using the following equation: […]

Assay [2] has as its target T1, c-Met kinase domain recombinant protein. Briefly: biochemical. The note with it: for inhibition at 0.1 µM: read-out: Average inhibition rate at 0.1 μM (%); for inhibition at 1 µM: read-out: Average inhibition rate at 1 μM (%); for inhibition at 10 µM: read-out: Average inhibition rate at 10 μM (%). The method, then: Enzymatic reaction substrate Poly(Glu,Tyr)4:1 was diluted to 20 μg/mL in potassium ion free PBS (10 mM sodium phosphate buffer, 150 mM NaCl, pH7.2-7.4), microplate was coated with this solution at 125 μL per well, and reacted at 37° C. for 12-16 hours. Liquid in wells was discarded, then the plate was washed 3 times for 5 minutes each with 200 μL per well of T-PBS (PBS containing 0.1% Tween-20).
Into each well was added 50 μL diluted ATP solution in reaction buffer (50 mM HEPES pH 7.4, 50 mM MgCl2, 0.5 mM MnCl2, 0.2 mM Na3VO4, 1 mM DTT), the final concentration was 5 μM. Test compound was diluted in DMSO to proper concentration, added at 1 μL per well or corresponding level of DMSO (negative control wells), then 49 μL diluted solution of c-Met kinase domain recombinant protein in reaction buffer was added to initiate the reaction, each test was setup with two wells of ATP free control. Reaction was performed in a 37° C. shaker (100 rpm) for 1 hour. The plate was washed three times with T-PBS. Primary antibody PY99 diluted solution was added at 100 μL per well, incubated in a 37° C. shaker for 0.5 hour.
The plate was washed three times with T-PBS. Goat anti mouse secondary antibody labeled with horseradish peroxidase was added at 100 μL per well, incubated in a 37° C. shaker for 0.5 hour. The plate was washed three times with T-PBS. […] Reaction was terminated by adding 50 μL per well of 2M H2SO4, the plate was read at 490 nm using a SPECTRA MAX 190 microplate reader with tunable wavelength.
as §1
IC50 was calculated by fitting the data for a four parameter fit using inhibition curve.

T1 sequence (P08581 1078-1345 limits assumed): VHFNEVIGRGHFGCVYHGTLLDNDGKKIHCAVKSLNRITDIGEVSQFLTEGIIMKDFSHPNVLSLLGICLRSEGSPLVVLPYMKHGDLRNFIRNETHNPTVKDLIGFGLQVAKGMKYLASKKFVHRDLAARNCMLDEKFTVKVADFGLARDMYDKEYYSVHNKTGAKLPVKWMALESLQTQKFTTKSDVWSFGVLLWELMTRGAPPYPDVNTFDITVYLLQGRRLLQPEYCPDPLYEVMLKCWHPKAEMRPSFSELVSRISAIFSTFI

Take `CC(C)(C)OC(=O)N1CC=C(c2cnc3cnn(S(=O)(=O)c4cnc5ccccn45)c3c2)CC1` [Example 35, 1-(imidazo[1,2-a]pyridine-3-sulfonyl)-6-[(1-t-butoxycarbonyl)-4-(1,2,3,6-tetrahydropyridinyl)]-1-H-pyrazolo[4,3-b]pyridine]: in assay [1], the inhibition at 10 µM amounted to 62.5%. Also, in assay [2], the inhibition at 0.1 µM was determined as 51.1%, the inhibition at 1 µM worked out at 53.2% and the inhibition at 10 µM worked out at 62.5%.

In the case of `O=S(=O)(c1cnc2ccccn12)n1ncc2ncc(-c3ccc4c(c3)OCCO4)cc21` [Example 36, 1-(imidazo[1,2-a]pyridine-3-sulfonyl)-6-[6-(1,4-benzodioxanyl)]-1-H-pyrazolo[4,3-b]pyridine], in assay [1], the inhibition at 10 µM was determined as 66.3%. In assay [2], the inhibition at 0.1 µM turned out to be 45.6%, the inhibition at 1 µM stood at 60% and the inhibition at 10 µM came out at 66.3%.

Regarding `O=S(=O)(c1cnc2ccccn12)n1ncc2ncc(-c3ccc(CN4CCOCC4)cc3)cc21` [Example 38, 1-(imidazo[1,2-a]pyridine-3-sulfonyl)-6-(4-morpholinomethylphenyl)-1-H-pyrazolo[4,3-b]pyridine], the inhibition at 10 µM in assay [1] was 87.1%. In addition, in assay [2], the inhibition at 0.1 µM was 63.2%, the inhibition at 1 µM was found to be 63.9% and the inhibition at 10 µM came out at 87.1%.

Take `CC(=O)c1ccc(-c2cnc3cnn(S(=O)(=O)c4cnc5ccccn45)c3c2)cc1` [Example 40, 1-(imidazo[1,2-a]pyridine-3-sulfonyl)-6-(4-acetylphenyl)-1-H-pyrazolo[4,3-b]pyridine]: in assay [1], the inhibition at 10 µM is 66%. In assay [2], the inhibition at 0.1 µM was 45.7%, the inhibition at 1 µM came out at 57.4% and the inhibition at 10 µM came to 66%.

Consider `CN(C)C(=O)c1ccc(-c2cnc3cnn(S(=O)(=O)c4cnc5ccccn45)c3c2)cc1` [Example 41, 1-(imidazo[1,2-a]pyridine-3-sulfonyl)-6-(4-dimethylaminocarbonylphenyl)-1-H-pyrazolo[4,3-b]pyridine], for which the inhibition at 10 µM in assay [1] came out at 68.7%. Moreover, in assay [2], the inhibition at 0.1 µM is 45.1%, the inhibition at 1 µM amounted to 54.6% and the inhibition at 10 µM stood at 68.7%.

For `CN(C)c1ccc(-c2cnc3cnn(S(=O)(=O)c4cnc5ccccn45)c3c2)cc1` [Example 42, 1-(imidazo[1,2-a]pyridine-3-sulfonyl)-6-(4-dimethylaminophenyl)-1-H-pyrazolo[4,3-b]pyridine], the inhibition at 10 µM in assay [1] is 67.5%. Besides, in assay [2], the inhibition at 0.1 µM worked out at 45.5%, the inhibition at 1 µM stood at 58.4% and the inhibition at 10 µM worked out at 67.5%.

Take `COc1ccc(OC)c(-c2cnc3cnn(S(=O)(=O)c4cnc5ccccn45)c3c2)c1` [Example 43, 1-(imidazo[1,2-a]pyridine-3-sulfonyl)-6-(2,5-dimethoxyphenyl)-1-H-pyrazolo[4,3-b]pyridine]: the inhibition at 10 µM in assay [1] turned out to be 58.4%. Besides, in assay [2], the inhibition at 0.1 µM worked out at 23.1%, the inhibition at 1 µM turned out to be 47.6% and the inhibition at 10 µM worked out at 68.7%.

For the compound `CC(C)(C)OC(=O)N1CCC(n2cc(-c3cnc4cnn(S(=O)(=O)c5cnc6ncccn56)c4c3)cn2)CC1` [Example 52, 1-(imidazo[1,2-a]pyrimidine-3-sulfonyl)-6-{{1-[(1-t-butoxycarbonyl)-4-piperidinyl]}-4-pyrazolyl}-1-H-pyrazolo[4,3-b]pyridine], in assay [1], the inhibition at 10 µM was found to be 54.5%. Also, in assay [2], the inhibition at 0.1 µM was 24.5%, the inhibition at 1 µM stood at 50.3% and the inhibition at 10 µM came to 54.5%.

Consider `O=C(c1ccc(C(F)(F)F)cc1)N1CCC(n2cc(-c3cnc4cnn(S(=O)(=O)c5cnc6ccccn56)c4c3)cn2)CC1` [Example 58, 1-(imidazo[1,2-a]pyridine-3-sulfonyl)-6-{{1-[(1-p-trifluoromethylbenzoyl)-4-piperidinyl]}-4-pyrazolyl}-1-H-pyrazolo[4,3-b]pyridine], for which the inhibition at 10 µM in assay [1] is 58.9%. For the same compound, in assay [2], the inhibition at 0.1 µM came out at 52.8%, the inhibition at 1 µM turned out to be 55.7% and the inhibition at 10 µM came out at 57.4%.

As to `CC(C)(C)OC(=O)N1CCC(n2cc(-c3cnc4cnn(S(=O)(=O)c5cnc6ccc(-c7cnn(C8CCN(C(=O)OC(C)(C)C)CC8)c7)nn56)c4c3)cn2)CC1` [Example 62, 1-{(6-{{1-[(1-t-butoxycarbonyl)-4-piperidinyl]}-4-pyrazolyl}-imidazo[1,2-b]pyridazine)-3-sulfonyl}-6-{{1-[(1-t-butoxycarbonyl)-4-piperidinyl]}-4-pyrazolyl}-1-H-pyrazolo[4,3-b]pyridine], the inhibition at 10 µM in assay [1] is 62.6%. In assay [2], the inhibition at 0.1 µM amounted to 73.2%, the inhibition at 1 µM turned out to be 73.2% and the inhibition at 10 µM was 80%.

With `O=S(=O)(c1cnc2ccc(C(F)(F)F)cn12)n1ncc2ncc(-c3cnn(C4CCNCC4)c3)cc21` [Example 65], the inhibition at 10 µM in assay [1] was 79.3%. Further, in assay [2], the inhibition at 0.1 µM came to 60.8%, the inhibition at 1 µM was found to be 65.1% and the inhibition at 10 µM was determined as 69.8%.

On to `CC(C)(C)OC(=O)N1CCC(n2cc(-c3cnc4cnn(S(=O)(=O)c5cnc6ccc(-c7cnn(C8CCN(C(=O)OC(C)(C)C)CC8)c7)cn56)c4c3)cn2)CC1` [Example 68, 1-{(6-{{1-[(1-t-butoxycarbonyl)-4-piperidinyl]}-4-pyrazolyl}-imidazo[1,2-a]pyridine)-3-sulfonyl}-6-{{1-[(1-t-butoxycarbonyl)-4-piperidinyl]}-4-pyrazolyl}-1-H-pyrazolo[4,3-b]pyridine], for which the inhibition at 10 µM in assay [1] turned out to be 69.8%. For the same compound, in assay [2], the inhibition at 0.1 µM worked out at 50.2%, the inhibition at 1 µM turned out to be 55.8% and the inhibition at 10 µM was 62%.

For `CC(C)N1CCC(n2cc(-c3cnc4cnn(S(=O)(=O)c5cnc6ccc(C(F)(F)F)cn56)c4c3)cn2)CC1` [Example 69], the inhibition at 10 µM in assay [1] amounted to 79.9%. In assay [2], the inhibition at 0.1 µM is 52.3%, the inhibition at 1 µM was 57.7% and the inhibition at 10 µM turned out to be 59.6%.

Consider `Cn1cc(-c2cnc3cnn(S(=O)(=O)c4cnc5ccc(Br)cn45)c3c2)cn1` [Example 70, 1-[(6-bromo-imidazo[1,2-a]pyridine)-3-sulfonyl]-6-[(1-methyl)-4-pyrazolyl]-1-H-pyrazolo[4,3-b]pyridine], for which the inhibition at 10 µM in assay [1] was 68.2%; in assay [2], 79.3%. Also, the inhibition at 1 µM in assay [2] is 44.7%.

`Cn1cc(-c2cnc3cnn(S(=O)(=O)c4cnc5ccc(-c6ccccc6)cn45)c3c2)cn1` [Example 71, 1-[(6-phenyl-imidazo[1,2-a]pyridine)-3-sulfonyl]-6-[(1-methyl)-4-pyrazolyl]-1-H-pyrazolo[4,3-b]pyridine]: in assay [1], the inhibition at 10 µM is 62%. Further, in assay [2], the half-inhibitory concentration (IC50) was 0.1 ± 0.01 nM, the inhibition at 0.1 µM turned out to be 68.5%, the inhibition at 1 µM came out at 73.4% and the inhibition at 10 µM stood at 83.8%.

As for `Cn1cc(-c2cnc3cnn(S(=O)(=O)c4cnc5ccc(-c6cncnc6)cn45)c3c2)cn1` [Example 74, 1-{[6-(5-pyrimidine)-imidazo[1,2-a]pyridine]-3-sulfonyl}-6-[(1-methyl)-4-pyrazolyl]-1-H-pyrazolo[4,3-b]pyridine], the inhibition at 10 µM in assay [1] is above 67.6%; in assay [2], 12.1%.

Consider `Cn1cc(-c2cnc3cnn(S(=O)(=O)c4cnc5ccc(-c6ccc(N7CCOCC7)cc6)cn45)c3c2)cn1` [Example 75, 1-{[6-(4-morpholinylphenyl)-imidazo[1,2-a]pyridine]-3-sulfonyl}-6-[(1-methyl)-4-pyrazolyl]-1-H-pyrazolo[4,3-b]pyridine], for which the inhibition at 10 µM in assay [1] is above 77.3%. Moreover, in assay [2], the inhibition at 0.1 µM is 74.6%, the inhibition at 1 µM was 75.6% and the inhibition at 10 µM turned out to be 83.1%.
